“Also recorded” adds a separate entry of the source.
What was measured:
thrombin receptor = target: T1, thrombin receptor (Homo sapiens, UniProt P25116); conditions: cited from earlier work
T1 sequence (P25116 22-425): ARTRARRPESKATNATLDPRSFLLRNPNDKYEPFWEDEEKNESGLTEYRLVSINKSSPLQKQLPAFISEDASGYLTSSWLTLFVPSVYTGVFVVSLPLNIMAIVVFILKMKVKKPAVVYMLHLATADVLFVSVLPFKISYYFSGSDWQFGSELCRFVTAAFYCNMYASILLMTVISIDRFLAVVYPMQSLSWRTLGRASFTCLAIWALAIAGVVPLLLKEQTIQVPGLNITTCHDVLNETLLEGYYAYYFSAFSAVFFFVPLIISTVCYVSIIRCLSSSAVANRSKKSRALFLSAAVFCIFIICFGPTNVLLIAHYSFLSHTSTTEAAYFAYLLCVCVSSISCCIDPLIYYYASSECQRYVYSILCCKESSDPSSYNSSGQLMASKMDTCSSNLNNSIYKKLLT

[1] = Compatibility studies between clopidogrel premix and 530348 bisulfate / free base
From the text: b. […] Clopidogrel is known to degrade under acidic and alkaline conditions. […] To test this hypothesis, the above studies were repeated in the presence of 530348 free base.

[2] = forced degradation data generated at Dr. Reddy's Lab; cited from earlier work

For `CCOC(=O)N[C@@H]1CC[C@@H]2[C@@H](C1)C[C@H]1C(=O)O[C@H](C)[C@H]1[C@H]2/C=C/c1ccc(-c2cccc(F)c2)cn1` [SCH 530348 bisulfate], the Selectivity (thrombin receptor) is given as “good” and the “Thrombin receptor antagonist activity (potency)” value (thrombin receptor) is given as “good”.
For `CCOC(=O)N[C@@H]1CC[C@@H]2[C@@H](C1)C[C@H]1C(=O)O[C@H](C)[C@H]1[C@H]2/C=C/c1ccc(-c2cccc(F)c2)cn1` [SCH 530348, ethyl[(1R,3aR,4aR,6R,8aR,9S,9aS)-9-[(E)-2-[5-(3-fluorophenyl)-2-pyridinyl]ethenyl]dodecahydro-1-methyl-3-oxonaphtho[2,3-c]furan-6-yl]carbamate], the Selectivity (thrombin receptor) is given as “good” and the “Thrombin receptor antagonist activity (potency)” value (thrombin receptor) is given as “good”.
For `COC(=O)[C@H](c1ccccc1Cl)N1CCc2sccc2C1` [clopidogrel], the “Extent of clopidogrel degradation” value ([1]; bisulfate salt compared to 530348 free base (FIG. 2)) is listed as “greater in the presence of the bisulfate salt”, the Clopidogrel degradation ([1]; in the presence of 530348 bisulfate) is listed as “significant degradation; also recorded: degrades” and the “Susceptibility of clopidogrel to degradation” value [2] is listed as “susceptible to degradation upon exposure to heat, humidity, and oxygen”.

Reference: patent US20120141586A1, “THROMBIN RECEPTOR ANTAGONIST AND CLOPIDOGREL FIXED DOSE TABLET” (priority 2009, published 2012)
